Assay results: US10519152B2, “Compounds and their use in treating cancer” (AstraZeneca AB, priority 2017, dated 2019)

biological target: T1, recombinant human Estrogen Receptor alpha ligand binding domain, residues 307-554 (ER alpha-LBD (GST)) (Homo sapiens, UniProt P03372); experiment: ERα binding assay (LanthaScreen TR-FRET competition); conditions: TR-FRET competition with Fluormone ES2 tracer, 4 hours at room temperature; single experiment or average of two or more
T1 construct: made in house
T1 sequence (P03372 307-554): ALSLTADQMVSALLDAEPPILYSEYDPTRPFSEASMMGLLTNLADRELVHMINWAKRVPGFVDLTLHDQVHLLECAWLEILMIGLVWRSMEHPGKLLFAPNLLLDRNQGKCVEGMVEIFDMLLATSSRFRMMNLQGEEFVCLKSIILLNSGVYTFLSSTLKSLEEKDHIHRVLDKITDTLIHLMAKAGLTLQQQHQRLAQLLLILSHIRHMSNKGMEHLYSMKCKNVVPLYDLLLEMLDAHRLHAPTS

In order of falling IC50:
1. Cc1ncsc1-c1ccc([C@H](C)NC(=O)[C@@H]2C[C@@H](O)CN2C(=O)[C@@H](NC(=O)C(F)(F)OCCOCCCCOc2cc(F)c([C@@H]3c4[nH]c5ccccc5c4C[C@@H](C)N3CC(C)(C)F)c(F)c2)C(C)(C)C)cc1 [Example 122, (2S,4R)-1-((S)-2-(2-(2-(4-(3,5-Difluoro-4-((1R,3R)-2-(2-fluoro-2-methylpropyl)-3-methyl-2,3,4,9-tetrahydro-1H-pyrido[3,4-b]indol-1-yl)phenoxy)butoxy)ethoxy)-2,2-difluoroacetamido)-3,3-dimethylbutanoyl)-4-hydroxy-N—((S)-1-(4-(4-methylthiazol-5-yl)phenyl)ethyl)pyrrolidine-2-carboxamide]  1.5 nM
2. Cc1ncsc1-c1ccc(CNC(=O)[C@@H]2C[C@@H](O)CN2C(=O)[C@@H](NC(=O)C(F)(F)OCCCCCCOc2cc(F)c([C@@H]3c4[nH]c5ccccc5c4C[C@@H](C)N3CC(C)(C)F)c(F)c2)C(C)(C)C)cc1 [Example 116, (2S,4R)-1-((S)-2-(2-((6-(3,5-Difluoro-4-((1R,3R)-2-(2-fluoro-2-methylpropyl)-3-methyl-2,3,4,9-tetrahydro-1H-pyrido[3,4-b]indol-1-yl)phenoxy)hexyl)oxy)-2,2-difluoroacetamido)-3,3-dimethylbutanoyl)-4-hydroxy-N-(4-(4-methylthiazol-5-yl)benzyl)pyrrolidine-2-carboxamide]  1 nM
3. Cc1ncsc1-c1ccc([C@H](C)NC(=O)[C@@H]2C[C@@H](O)CN2C(=O)[C@@H](NC(=O)CCOCCCCCCCOc2cc(F)c([C@@H]3c4[nH]c5ccccc5c4C[C@@H](C)N3CC(C)(C)F)c(F)c2)C(C)(C)C)cc1 [Example 114, (2S,4R)-1-((S)-2-(3-((7-(3,5-difluoro-4-((1R,3R)-2-(2-fluoro-2-methylpropyl)-3-methyl-2,3,4,9-tetrahydro-1H-pyrido[3,4-b]indol-1-yl)phenoxy)heptyl)oxy)propanamido)-3,3-dimethylbutanoyl)-4-hydroxy-N—((S)-1-(4-(4-methylthiazol-5-yl)phenyl)ethyl)pyrrolidine-2-carboxamide]  0.9 nM
4. Cc1ncsc1-c1ccc([C@H](C)NC(=O)[C@@H]2C[C@@H](O)CN2C(=O)[C@@H](NC(=O)C(F)(F)OCCCOCCCOc2cc(F)c([C@@H]3c4[nH]c5ccccc5c4C[C@@H](C)N3CC(C)(C)F)c(F)c2)C(C)(C)C)cc1 [Example 120, (2S,4R)-1-((S)-2-(2-(3-(3-(3,5-Difluoro-4-((1R,3R)-2-(2-fluoro-2-methylpropyl)-3-methyl-2,3,4,9-tetrahydro-1H-pyrido[3,4-b]indol-1-yl)phenoxy)propoxy)propoxy)-2,2-difluoroacetamido)-3,3-dimethylbutanoyl)-4-hydroxy-N—((S)-1-(4-(4-methylthiazol-5-yl)phenyl)ethyl)pyrrolidine-2-carboxamide]  0.9 nM
5. Cc1ncsc1-c1ccc(CNC(=O)[C@@H]2C[C@@H](O)CN2C(=O)[C@@H](NC(=O)C(F)(F)OCCCOCCCOc2cc(F)c([C@@H]3c4[nH]c5ccccc5c4C[C@@H](C)N3CC(C)(C)F)c(F)c2)C(C)(C)C)cc1 [Example 119, (2S,4R)-1-((S)-2-(2-(3-(3-(3,5-Difluoro-4-((1R,3R)-2-(2-fluoro-2-methylpropyl)-3-methyl-2,3,4,9-tetrahydro-1H-pyrido[3,4-b]indol-1-yl)phenoxy)propoxy)propoxy)-2,2-difluoroacetamido)-3,3-dimethylbutanoyl)-4-hydroxy-N-(4-(4-methylthiazol-5-yl)benzyl)pyrrolidine-2-carboxamide]  0.8 nM
6. Cc1ncsc1-c1ccc(CNC(=O)[C@@H]2C[C@@H](O)CN2C(=O)[C@@H](NC(=O)CCOCCCCCCCOc2cc(F)c([C@@H]3c4[nH]c5ccccc5c4C[C@@H](C)N3CC(C)(C)F)c(F)c2)C(C)(C)C)cc1 [Example 115, (2S,4R)-1-((S)-2-(3-((7-(3,5-difluoro-4-((1R,3R)-2-(2-fluoro-2-methylpropyl)-3-methyl-2,3,4,9-tetrahydro-1H-pyrido[3,4-b]indol-1-yl)phenoxy)heptyl)oxy)propanamido)-3,3-dimethylbutanoyl)-4-hydroxy-N-(4-(4-methylthiazol-5-yl)benzyl)pyrrolidine-2-carboxamide]  0.7 nM
7. Cc1ncsc1-c1ccc(CNC(=O)[C@@H]2C[C@@H](O)CN2C(=O)[C@@H](NC(=O)C2(OCCCCCCOc3cc(F)c([C@@H]4c5[nH]c6ccccc6c5C[C@@H](C)N4CC(C)(C)F)c(F)c3)CC2)C(C)(C)C)cc1 [Example 118, (2S,4R)-1-((S)-2-(1-((6-(3,5-difluoro-4-((1R,3R)-2-(2-fluoro-2-methylpropyl)-3-methyl-2,3,4,9-tetrahydro-1H-pyrido[3,4-b]indol-1-yl)phenoxy)hexyl)oxy)cyclopropane-1-carboxamido)-3,3-dimethylbutanoyl)-4-hydroxy-N-(4-(4-methylthiazol-5-yl)benzyl)pyrrolidine-2-carboxamide]  0.7 nM
8. Cc1ncsc1-c1ccc(CNC(=O)[C@@H]2C[C@@H](O)CN2C(=O)[C@@H](NC(=O)C(F)(F)OCCOCCCCOc2cc(F)c([C@@H]3c4[nH]c5ccccc5c4C[C@@H](C)N3CC(C)(C)F)c(F)c2)C(C)(C)C)cc1 [Example 121, (2S,4R)-1-((S)-2-(2-(2-(4-(3,5-Difluoro-4-((1R,3R)-2-(2-fluoro-2-methylpropyl)-3-methyl-2,3,4,9-tetrahydro-1H-pyrido[3,4-b]indol-1-yl)phenoxy)butoxy)ethoxy)-2,2-difluoroacetamido)-3,3-dimethylbutanoyl)-4-hydroxy-N-(4-(4-methylthiazol-5-yl)benzyl)pyrrolidine-2-carboxamide]  0.7 nM
9. Cc1ncsc1-c1ccc(CNC(=O)[C@@H]2C[C@@H](O)CN2C(=O)[C@@H](NC(=O)CCCCCCCOCCOc2cc(F)c([C@@H]3c4[nH]c5ccccc5c4C[C@@H](C)N3CC(C)(C)F)c(F)c2)C(C)(C)C)cc1 [Example 111, (2S,4R)-1-((S)-2-(8-(2-(3,5-Difluoro-4-((1R,3R)-2-(2-fluoro-2-methylpropyl)-3-methyl-2,3,4,9-tetrahydro-1H-pyrido[3,4-b]indol-1-yl)phenoxy)ethoxy)octanamido)-3,3-dimethylbutanoyl)-4-hydroxy-N-(4-(4-methylthiazol-5-yl)benzyl)pyrrolidine-2-carboxamide]  0.6 nM
10. Cc1ncsc1-c1ccc(CNC(=O)[C@@H]2C[C@@H](O)CN2C(=O)[C@@H](NC(=O)CCCCOCCCCCOc2cc(F)c([C@@H]3c4[nH]c5ccccc5c4C[C@@H](C)N3CC(C)(C)F)c(F)c2)C(C)(C)C)cc1 [Example 113, (2S,4R)-1-((S)-2-(5-((5-(3,5-Difluoro-4-((1R,3R)-2-(2-fluoro-2-methylpropyl)-3-methyl-2,3,4,9-tetrahydro-1H-pyrido[3,4-b]indol-1-yl)phenoxy)pentyl)oxy)pentanamido)-3,3-dimethylbutanoyl)-4-hydroxy-N-(4-(4-methylthiazol-5-yl)benzyl)pyrrolidine-2-carboxamide]  0.6 nM
11. Cc1ncsc1-c1ccc(CNC(=O)[C@@H]2C[C@@H](O)CN2C(=O)[C@@H](NC(=O)CCCOCCCCCCOc2cc(F)c([C@@H]3c4[nH]c5ccccc5c4C[C@@H](C)N3CC(C)(C)F)c(F)c2)C(C)(C)C)cc1 [Example 112, (2S,4R)-1-((S)-2-(4-((6-(3,5-difluoro-4-((1R,3R)-2-(2-fluoro-2-methylpropyl)-3-methyl-2,3,4,9-tetrahydro-1H-pyrido[3,4-b]indol-1-yl)phenoxy)hexyl)oxy)butanamido)-3,3-dimethylbutanoyl)-4-hydroxy-N-(4-(4-methylthiazol-5-yl)benzyl)pyrrolidine-2-carboxamide]  0.5 nM
